The values that follow come from paper PMC12108757, “Discovery and Characterisation of Novel Poly-Histidine-Poly-Glycine Peptides as Matrix Metalloproteinase Inhibitors” (Biomolecules, 2025).

The subject of data set [1] is human MMP-1. Briefly: MMP-1 proteinase inhibition assay (time-dependent β-casein degradation, SDS-PAGE). It is filed as biochemical. The conditions noted are these: for catalytic suppression of MMP-1: proteinase inhibition assay, summary in discussion; for inhibition of MMP-1 activity in hydrolysing β-casein: 0–24 h, MMP-1 pre-incubated with peptide (1:25 molar ratio), sodium phosphate buffer pH 6.5, 37 °C, 12% SDS-PAGE, Coomassie. As for the experimental part: Proteolytic activity was assessed using β-casein (0.08 mM) as a substrate in a time-course assay (0–24 h). Enzymatic reactions were initiated by pre-incubating human MMP-1 with synthetic pHpG peptides (1:25 molar ratio) in a sodium phosphate buffer (pH 6.5) at 37 °C for 30 min. The recombinant human MMP-1 protein (rhMMP-1; ≥95% purity), obtained from MedChemExpress (Monmouth Junction, NJ, USA), was expressed in HEK293 cells as an unglycosylated form with a determined molecular weight of 49–61 kDa. The latent proenzyme requires activation via incubation with 1 mM aminophenylmercuric acetate at 37 °C for 2 h to generate the catalytically active form. Reactions were quenched with 5 mM EDTA at designated intervals, followed by electrophoretic separation on 12% SDS-PAGE and Coomassie staining. The negative control was β-casein in the absence of enzymatic catalysis, while water served as a system blank to monitor background interference.

Data set [2] can be described thus: Circular dichroism (CD) analysis. It is filed as physicochemical. As to conditions: 0.2 mM, 20 °C, CDNN software. As for the experimental part:
The synthetic pHpGs (0.2 mM) were analysed by CD spectroscopy to identify the secondary microstructure, respectively. Settings: scanning range of 180–260 nm, speed of 50 nm·min^−1, bandwidth of 1 nm, and a response time of 0.5 s. Secondary structure proportions (α-helices, β-sheets, β-turns, and random coils) were analysed via CDNN v2.1 software (Applied Photophysics Ltd., Leatherhead, UK).

Data set [3] in a line: UV-Vis spectroscopy of pHpGs and zinc–pHpG complexes. The class given is physicochemical. The conditions noted are these: 0.1 mM, 200–300 nm, room temperature; for UV–visible wavelength, zinc–pHpG complex: Zn^2+ complex; for UV–visible wavelength, peptide before zinc binding: peptide alone. As for the experimental part:
Ultraviolet–visible (UV–Vis) spectrum of pHpGs and zinc–pHpG complexes (0.1 mM) were recorded using a Shimadzu UV-2450 spectrophotometer (Shimadzu Corporation, Kyoto, Japan) in the wavelength range of 200–300 nm at room temperature.

The test system of data set [4] is HUVECs. Briefly: Tube formation assay (Matrigel). The class given is cell-based, human. As to conditions: hVEGF165-stimulated, 1% FBS, 8 h, 37 °C, 3.125–25 μM. As for the experimental part:
Matrigel™ Basement Membrane Matrix (BD Bioscience, Franklin Lakes, NJ, USA) was added to a 96-well plate to a total volume of 60 μL per well and polymerised at 37 °C with 5% CO2 for 30 min to form a gel layer. HUVECs (2 × 10^4 cells/well) in the medium with 1% FBS were seeded. Different concentrations of pHpG-H7 peptide (3.125 μM, 6.25 μM, 12.5 μM, 25 μM) were added to each well and incubated for 8 h (37 °C, 5% CO2). Results were detected by phase-contrast microscope (Olympus, Tokyo, Japan) and photographed. At least three representative fields from each well were selected to count the number of branching points.

Data set [5] relates to HUVECs. Briefly: Trans-well migration assay. It is filed as cell-based, human. As to conditions: 10% FBS, hVEGF165 25 ng/mL, 24 h, 37 °C; 3.125–25 μM. As for the experimental part:
HUVECs (2 × 10^5 cells) were seeded in the upper chamber of a modified Boyden chamber system (BD Sciences, Milpitas, CA, USA). The lower chamber contained medium with 10% FBS, hVEGF165 (25 ng/mL), pHpG-H7 peptide (3.125 μM, 6.25 μM, 12.5 μM, 25 μM), or water. After 24 h incubation (37 °C, 5% CO2), migrated cells on the lower membrane surface were fixed, stained with Crystal Violet, and imaged. Cell migration was quantified using ImageJ software.

In data set [6] the test system is HUVECs. Briefly: Scratch wound healing assay. The conditions noted are these: hVEGF165 25 ng/mL stimulated, serum-free, 12 h, 37 °C; across all groups 3.125–25 μM. It is filed as cell-based, human. As for the experimental part: Human umbilical vein endothelial cells (HUVECs) were procured from the Shanghai Institute of Biochemistry and Cell Biology (Chinese Academy of Sciences, China). For the scratch wound healing assay, HUVECs were seeded in 24-well plates at a density of 1.2 × 10⁵ cells/well and cultured to form confluent monolayers. A linear wound was created by scraping with a sterile pipette tip. Serum-free Dulbecco’s modified Eagle medium containing 25 ng/mL of human vascular endothelial growth factor 165 (hVEGF165) was supplied, followed by the addition of either the pHpG-H7 peptide (3.125 μM, 6.25 μM, 12.5 μM, 25 μM) or water as a control. Cells were incubated for 12 h (37 °C, 5% CO2), and images were captured at 0 h (initial wound area) and 12 h. Wound healing was quantified using ImageJ 1.53t software, with a migration rate calculated as: Mobility (%) = (initial wound area–12 h residual area)/initial wound area × 100%.

For data set [7], the system named is metalloproteinase. The conditions noted are these: ref [10]; cited from earlier work. As for the experimental part: Time-dependent β-casein degradation mediated by MMP-1 was analysed. In the absence of pHpG peptides, β-casein was progressively degraded and fully hydrolysed within 24 h (Figure 4A).
Data set [8] relates to venom-induced haemorrhage. As to conditions: ref [10]; cited from earlier work. From the text: (§1) In the preceding investigation, we reported the presence of snake venom metalloproteinase in A. squamigera’s venom, which belongs to the Pep_M12B_propeptide family. […] This hypothesis is strongly supported by findings ...
Data set [9] relates to SVMP. As to conditions: ref [10]; cited from earlier work.
From the text: as §1

Regarding EDDHHHHHGVGGGGGGGGGG [pHpG-H5], the “catalytic suppression of MMP-1” value in [1] is given as “potent catalytic suppression”. Besides, the “inhibition of MMP-1 activity in hydrolysing β-casein” value (from here on “inhibition of MMP-1 activity”) in data set [1] (β-casein 0.08 mM, 30 min) is reported as “significantly inhibited”. In addition, in data set [2], the “Unorderd (random coil)” value is given as 29.2%, the α-Helix is given as 12.1%, the β-Strand is reported as 40.6% and the β-Turn amounted to 21.6%. Further, in [3], the “UV–visible wavelength, zinc–pHpG complex” value is 216 nm and the “UV–visible wavelength, peptide before zinc binding” value is 214 nm.

Consider EDDHHHHHHHGVGGGGGGGGGG [pHpG-H7], for which the “relative inhibitory effect on MMP-1 among the pHpG peptides” value in data set [1] (comparison of pHpG-H5, pHpG-H7, pHpG-H9, β-casein, SDS-PAGE) is listed as “most pronounced inhibitory effect”. Further, the “catalytic suppression of MMP-1” value in data set [1] is on record as “potent catalytic suppression”. Further, the “inhibition of MMP-1 activity” value in data set [1] (β-casein 0.08 mM, 30 min) is on record as “significantly inhibited”. Further, the “earliest time of suppression of MMP-1 activity” value in data set [1] (β-casein 0.08 mM, pre-incubation 1:25 molar ratio, pH 6.5, 37 °C, 30 min, SDS-PAGE, 'as early as') is recorded as not above 0.5 h. Besides, the “anti-angiogenesis effect (tube formation)” value in data set [4] was “anti-angiogenesis effects in a dose-dependent manner”. Also, in data set [2], the “Unorderd (random coil)” value stood at 46.4%, the α-Helix was 6.2%, the β-Strand was determined as 13.6% and the β-Turn stood at 29.4%. In data set [3], the “UV–visible wavelength, zinc–pHpG complex” value is recorded as 215 nm and the “UV–visible wavelength, peptide before zinc binding” value amounted to 212 nm. Further, in [5], the HUVECs migration result is “inhibited by pHpG-H7 in a dose-dependent manner”. Moreover, the “wound closure capability of HUVECs” value in data set [6] is “significantly impaired”.

With “EDDHHHHHHHHHGVGGGGGGGGGG [pHpG-H9, Atheris pHpG-1 is equivalent to pHpG-H9, reference compound]”, in [1], the “catalytic suppression of MMP-1” value is “potent catalytic suppression”. Besides, in data set [1] (β-casein 0.08 mM, 30 min), the “inhibition of MMP-1 activity” value is listed as “significantly inhibited”. In addition, in data set [2], the “Unorderd (random coil)” value was 47.5%, the α-Helix is on record as 6.3%, the β-Strand is 11.7% and the β-Turn is reported as 30.7%. For the same sequence, the metalloproteinase-mediated casein hydrolysis entry in data set [7] is listed as “inhibits”. In data set [3], the “UV–visible wavelength, zinc–pHpG complex” value is reported as 218 nm and the “UV–visible wavelength, peptide before zinc binding” value stood at 210 nm. The venom-induced haemorrhage result in data set [8] is “alleviation of venom-induced haemorrhage”. Besides, the SVMP activity entry in [9] was “inhibition of SVMP activity”.
